Where two headings read alike, the source gives them in different places.
What was measured:
Format in all cases: cell-based
RSV A2 VR-1540 = experiment: Plaque Reduction Assay 2 (HEp-2 cells, virospot count); conditions: human respiratory syncytial virus, 24 h; RSV A2, HEp-2 cells, 1 day
Description: Plaque Reduction Assay 2:
This RSV plaque reduction assay is an infectivity assay which allows quantification of the number of infectious units in a distinct foci of RSV infection. This is indicated by zones of viral antigen detected by specific antibody staining within a monolayer of otherwise healthy tissue culture cells. As each plaque originates from a single infectious virus particle an accurate calculation of the anti-viral effect can be obtained by counting plaques in the presence and absence of an anti-viral compound. HEp-2 cells (ATCC, CCL23) were passaged in flasks and seeded in 96-well plates in DMEM containing antibiotics and supplemented with 10% FBS. During inoculation and subsequent incubation, cells were cultured in DMEM containing 3% FBS. 100 plaque forming unit (PFU)/well of RSV (RSV A2 VR-1540) was mixed with ten serial dilutions of compound. Subsequently, 100 μL of the virus/compound mixtures was added to confluent HEp-2 cell monolayers. The cells and virus/compound mixtures were incubated at 35° C. in a humidified 5% CO2 incubator for 1 day.
Cells were washed twice with PBS before adding 50% v/v EtOH/MeOH, and then stored at −20° C. On the day of the staining, fixative was first removed from the plates. Plates were washed 3× with PBS. A pre-titrated amount of the primary antibody was added in 60 μL PBS/2% milk powder, and plates incubated for 1 h at rt. The plates were washed 3× with PBS/0.05% Tween20 before addition of goat anti-mouse horse radish peroxidase in 60 μL PBS/2% milk powder, and incubated for 1 h at rt. Following three wash steps with PBS/0.05% Tween20, 60 μL ready-to-use TrueBlue was added and plates were incubated at rt for 10-15 min before adding MilliQ water. Plates were washed once with water, incubated for 30-60 min and after removal of water, air-dried in the dark.
Plates were scanned and analyzed using the Immunospot S6 UV analyzer, which is equipped with BioSpot analysis software for counting immunostained plaques (virospots). Plaque counts were used to calculate % infection relative to the mean of the spot count (SC) in the virus control wells for RSV. IC50/IC90 values were calculated as 50% or 90% reduction in signal, respectively, by interpolation of inhibition curves fitted with a 4-parameter nonlinear regression with a variable slope in GraphPad 5.0 (Prism).

RSV A2 = experiment: Plaque Reduction Assay 1 (Vero cells, immunostaining); conditions: two replicate values, read-out: RSV Plaque Reduction assays A2 (PRNT1) (n = 2) IC50
Experimental: Plaque Reduction Assay 1: Vero cells were seeded in 96-well plates in a volume of 100 μL of Optimem supplemented with 3% FCS at a concentration of 4×10^4 cells per well. After an overnight incubation at 37° C. in a humidified 5% CO2 atmosphere, the monolayer of cells should be approximately 90% confluent. Antiviral compounds were titrated in pre-warmed Serum Free (SF) Optimem in a U-bottom 96 well plate. For compounds in a DMSO solution, titration in 100% DMSO was performed first and each concentration added individually to a 2× final concentration at 4% DMSO in SF media before mixing with virus (2% final DMSO with virus). Media was then removed from cells and replaced with PBS (100 μl/well). RSV stock was thawed and diluted in SF Optimem media to 4000 PFU/mLl. An equal volume of virus was added to compounds on the titration plate. PBS was removed from cells which were then inoculated with the virus/compound solution (50 μL/well). Cells were incubated for 2 h in a 37° C.+5% CO2 humidified incubator to allow infection. Inoculum was removed and media (Optimem+1% FCS) added to cells (100 μl/well). Cells were subsequently incubated for 48 h at 37° C.+5% CO2 in a humidified incubator. Immunostaining Procedure: Media was removed from cells and the monolayer washed with PBS. Cells were fixed with ice cold 80% Acetone in PBS (100 μl/well) for 20 mins at −20° C. Fixative was removed and cells are dried for 30 mins with plates inverted. Blocking solution (5% skim milk powder in PBS-T) was added to cells (150 μL/well) and plates were incubated for 30 mins at room temperature. Blocking solution was removed and plates washed once with PBS-T. Primary antibody in blocking solution was added to plates (50 μl/well) and incubated for 1 h at 37° C. Plates were then washed 3 times with PBS-T. Secondary antibody in blocking solution was added to plates ([…]) and incubated for 1 h at 37° C. in the dark. Plates were washed as above and then dried for 10 mins. Plates were scanned on the Odyssey Imager (Li-Cor Biosciences) at a resolution of […], medium quality and level 5 intensity in the […]. Data Analysis: Images obtained were saved and plaque numbers counted with the aid of computer imaging software. EC50 values for compounds were derived from dose response curves [three variable log(inhibitor) vs response] obtained using Graphpad Prism software.

RSV A2_F = target: T1, RSV A2_F (Human respiratory syncytial virus A, UniProt P03420); experiment: RSV fusion assay (luciferase reporter, HEK 293T/17 cells transfected with A2_F); conditions: Fusion activity IC50 μM, HEK 293T/17 cells, 24 hr
T1 construct: expressed in transfected cells; host or cells: HEK 293T/17
T1 sequence (P03420 137-574): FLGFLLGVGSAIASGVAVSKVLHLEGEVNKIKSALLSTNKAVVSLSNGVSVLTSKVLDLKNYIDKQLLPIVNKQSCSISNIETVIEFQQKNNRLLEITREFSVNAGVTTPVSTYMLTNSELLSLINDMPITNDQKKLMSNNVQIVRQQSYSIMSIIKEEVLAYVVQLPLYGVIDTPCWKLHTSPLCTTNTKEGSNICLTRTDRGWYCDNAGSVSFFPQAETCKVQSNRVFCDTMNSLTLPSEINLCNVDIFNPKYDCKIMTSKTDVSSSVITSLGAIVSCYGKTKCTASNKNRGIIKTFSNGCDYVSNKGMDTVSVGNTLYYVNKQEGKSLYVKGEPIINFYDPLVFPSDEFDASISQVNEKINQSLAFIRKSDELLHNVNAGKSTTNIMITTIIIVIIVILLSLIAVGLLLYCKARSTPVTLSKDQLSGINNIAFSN
T1 sequence (P03420 26-109): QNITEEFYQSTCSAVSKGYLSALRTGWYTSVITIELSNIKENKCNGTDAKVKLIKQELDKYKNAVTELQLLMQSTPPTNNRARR
Experimental: HEK 293T/17 cells were cultured in T75 culture flasks in Dulbecco's medium (DMEM) containing 10% FBS and 1× Penicillin-Streptomycin (Pen/Strep) and warmed to 37° C. prior to use. The cells were passaged by first washing briefly with 3 ml phosphate buffered saline (PBS) followed by a 4 min incubation with […] at 37° C. 7 ml media was then added to the flask and the cells dispersed via pipetting (×3) against the bottom of the flask. Two further T75 flasks were each seeded with 2×10^6 cells in 15 ml fresh media.
Cells were seeded on the T75 plates at the same density as on the 6-well plates the area of a T75 flask and one 1.75 cm radius well from a 6-well plate were compared. 7.79×2 ml of 3×10^5 cells ml^−1 was used to seed a single T75 flask.
HEK cells were removed from a T75 flask as described above. The cells were counted and diluted to 3×10^5 cells/ml in fresh media. Two T75 flasks were each seeded with 15.58 ml diluted cells.
The plasmid DNA (for pFR-Luc and pcDNA3.1_Gal4/NFκB) to be transfected into the HEK cells was first prepared in serum free media (DMEM+Pen/Strep) containing the transfection reagent Fugene 6 (Promega). Transfections were set up as follows (Luc=pFR_Luc, Gal4=pcDNA3.1+_Gal4/NFκB, A2_F=pcDNA3.1+_A2_F)
Serum free media was placed in a 1.5 ml eppendorf tube then the fugene 6 was added into the media. The tube was vortexed for 1 s before being incubated at RT for 5 min. The plasmid DNA was then added to the tube, vortexed for 1 s, then incubated at RT for 15 min
The transfection reagents were then added to the appropriate T75 flask by tipping the flask on end and adding the reagents directly to the media already in the flask. The flask was then tipped on its back so the media could be mixed thoroughly whilst not disturbing the cells before placing the flask the right way up and incubating overnight at 37° C. and 5% CO2.
Compounds were diluted (in a polypropylene round-bottomed 96 well plate) 1:3 in a twelve point dilution curve to give top [final] of either 3.3 μM, 1 μM, 500 nM 200 nM or 100 nM. The Control compound was always run at a concentration of 100 nM.
The cells were then counted and diluted to 4×10^5 cells/ml in fresh media. 50 μl of transfection population 1 cells were added to all wells of the assay plates. 100 μl diluted compound (2 rows per compound), standard curve (one row) and controls (100 nM RV (100% inhibition, four wells), DMSO (0% inhibition, eight wells)) were added to the appropriate wells. 50 μl of the diluted (4×10^5 cells/ml) transfection population 2 cells when then added to all wells.
The plates were then incubated for 24 hr at 37° C. and 5% CO2
Buffers were prepared for the luciferase assay (20 mM tricine, 10 mM MgSO4, 1 mM EDTA, 10 mM DTT) and lysis (25 mM tris-phosphate, 8 mM MgCl2, 1 mM DTT, 1% Triton X-100, 15% glycerol) and stored at −20° C.
Luminescence was measured as described:
Media was discarded into Virkon and the plates washed with 100 ul PBS per well. 20 ul/well of lysis buffer was added to each well and incubated shaking for 5 min at RT. Luciferin was added to LAAB at a dilution of 1:50 to give a working luciferin buffer. 100 μl working luciferin buffer was added to each well and luminescence was measured immediately. […]

[1] = human respiratory syncytial virus, Vero

Compound | IC50 (RSV A2 VR-1540) [µM] | IC50 (RSV A2; [1]) [µM] | IC50 (RSV A2) [µM] | IC50 (RSV A2_F) [µM]
NC1CCN(c2ncc(CN3C(=O)C4(CC4)c4ccc(F)cc43)c(NCCCCO)n2)C1 (stereo not shown) [Compound 4, 1′-((2-(3-Aminopyrrolidin-1-yl)-4-((4-hydroxybutyl)amino)pyrimidin-5-yl)methyl)-6′-fluorospiro[cyclopropane-1,3′-indolin]-2′-one] | 0.043 | 0.00548 | 0.0093 | 0.452
CCCNc1nc(N2CCC(N)C2)ncc1CN1C(=O)C2(CC2)c2ccc(F)cc21 (stereo not shown) [Compound 28, 1′-{[2-(3-Aminopyrrolidin-1-yl)-4-(propylamino)pyrimidin-5-yl]methyl}-6′-fluoro-1′,2′-dihydrospiro[cyclopropane-1,3′-indole]-2′-one] | 0.063 | – | – | 1.23
NC1CCN(c2ncc(CN3C(=O)C4(CC4)c4ccc(F)cc43)c(NCCCO)n2)C1 (stereo not shown) [Compound 27, 1′-{[2-(3-Aminopyrrolidin-1-yl)-4-[(3-hydroxypropyl)amino]pyrimidin-5-yl]methyl}-6′-fluoro-1′,2′-dihydrospiro[cyclopropane-1,3′-indole]-2′-one] | 0.034 | – | – | 1.09
NC1CCN(c2ncc(CN3C(=O)C4(CC4)c4ccc(F)cc43)c(N3CCS(=O)(=O)CC3)n2)C1 (stereo not shown) [Compound 13, 1′-((2-(3-Aminopyrrolidin-1-yl)-4-(1,1-dioxidothiomorpholino)pyrimidin-5-yl)methyl)-6′-fluorospiro[cyclopropane-1,3′-indolin]-2′-one] | 0.424 | – | – | 5.04
CC(C)CCNc1nc(N2CCC(N)C2)ncc1CN1C(=O)C2(CC2)c2ccc(F)cc21 (stereo not shown) [Compound 1, 1′-((2-(3-Aminopyrrolidin-1-yl)-4-(isopentylamino)pyrimidin-5-yl)methyl)-6′-fluorospiro[cyclopropane-1,3′-indolin]-2′-one] | – | 0.619 | 0.316 | 0.708
NC1CCN(c2ncc(CN3C(=O)C4(CC4)c4ccc(F)cc43)c(NC3CCOCC3)n2)C1 (stereo not shown) [Compound 10, 1′-((2-(3-Aminopyrrolidin-1-yl)-4-((tetrahydro-2H-pyran-4-yl)amino)pyrimidin-5-yl)methyl)-6′-fluorospiro[cyclopropane-1,3′-indolin]-2′-one] | 0.033 | – | – | 0.184
CC(C)CNc1nc(N2CCC(N)C2)ncc1CN1C(=O)C2(CC2)c2ccc(F)cc21 (stereo not shown) [Compound 5, 1′-((2-(3-Aminopyrrolidin-1-yl)-4-(isobutylamino)pyrimidin-5-yl)methyl)-6′-fluorospiro[cyclopropane-1,3′-indolin]-2′-one] | 0.998 | 0.165 | 0.215 | 0.655

Source: patent publication US10603319B2, “Pyrimidine derivatives and their use in treating or preventing a respiratory syncytial virus infection” (REVIRAL LIMITED, priority 2016, dated 2020)
